Among the data in US20130244296A1, “HALOGENATION ENZYMES” (priority 2011, published 2013) are Hsp90 inhibition, Km and kcat values, retold here.

Where two headings read alike, the source gives them in different places.

In experiment [1] the test system is heat shock protein 90 (Hsp90). Conditions: general statement, no test described; cited from earlier work.
Experiment [2] concerns the target T1, Rdc2 halogenase (Metacordyceps chlamydosporia, UniProt B3FWT7, INS404VIQGSGSS/INS87YTDFIA/S88A).
T1 construct: 2 was concentrated and exchanged into Buffer A; His6 (N); made in house; host or cells: Escherichia coli BL21-CodonPlus (DE3)-RIL
In kind it is biochemical, P. chlamydosporia. Conditions: three independent experiments. As to the method:
Kinetic analysis of two chlorination steps of dihydroresorcylide (compound 3) by an Rdc2 halogenase of the present disclosure was carried out. Dihydroresorcylide (compound 3) was chosen as the substrate to study the kinetics of the Rdc2 halogenase. To measure the ka, and Km for the C-11 chlorination, a series of 100-μL reaction systems were set up containing 100 μM FAD, 10 mM NADH, 10 mM NaCl, 16 μM Fre, and 16 μM Rdc2 halogenase in 100 mM phosphate buffer (pH 7.0) with varying amount of compound 3 (0.17 to 1.71 mM) in each tube. All the reaction components and Fre were mixed thoroughly and maintained at 28° C. for 2 min. Rdc2 was then added to initiate the reaction. After 30 minutes, the reactions were quenched with 200 μL of MeOH, briefly vortexed, and centrifuged at 15,000 rpm for 5 minutes. Product formation was quantified on the HPLC at 315 nm based on the area of the peaks and standard curve of compound 3a. Reactions were run in triplicate and the steady-state parameters kcat and Km were determined by nonlinear fitting of Michaelis-Menten equation.
For the second halogenations step, C-13 chlorination, the same method was used to determine kcat and Km except that 11-chlorodihydroresorcylide (compound 3a) was used as the substrate (0.03-0.18 mM).

[3] abbreviates: C-13 halogenation (chlorination), compound 3a as substrate.

T1 sequence (B3FWT7 other isoform, or with tags, fused parts or gaps INS87YTDFIA/S88A/INS404VIQGSGSS): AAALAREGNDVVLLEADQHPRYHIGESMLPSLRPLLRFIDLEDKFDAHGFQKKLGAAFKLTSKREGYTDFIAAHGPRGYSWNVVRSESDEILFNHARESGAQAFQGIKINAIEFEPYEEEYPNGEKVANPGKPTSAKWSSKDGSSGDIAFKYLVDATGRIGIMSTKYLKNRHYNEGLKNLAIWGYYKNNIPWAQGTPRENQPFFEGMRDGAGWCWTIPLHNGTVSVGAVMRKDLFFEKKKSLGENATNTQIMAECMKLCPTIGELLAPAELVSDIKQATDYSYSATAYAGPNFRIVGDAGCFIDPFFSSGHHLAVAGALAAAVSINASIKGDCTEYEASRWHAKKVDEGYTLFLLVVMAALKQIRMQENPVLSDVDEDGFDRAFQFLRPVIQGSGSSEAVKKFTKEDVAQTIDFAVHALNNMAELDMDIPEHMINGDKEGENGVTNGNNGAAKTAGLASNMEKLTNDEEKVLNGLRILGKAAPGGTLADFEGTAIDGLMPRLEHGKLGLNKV

Turning to `C[C@@H]1C[C@H]2O[C@@H]2/C=C\C=C\C(=O)Cc2cc(O)cc(O)c2C(=O)O1` [Compound 1, monocillin I], the Hsp90 inhibition entry in experiment [1] was “potent”.

Regarding `C[C@@H]1C[C@H]2O[C@@H]2/C=C\C=C\C(=O)Cc2c(Cl)c(O)cc(O)c2C(=O)O1` [Compound 1a, radicicol], the Hsp90 inhibition result in experiment [1] is “potent”.

In the case of `C[C@H]1CCCCCC(=O)Cc2cc(O)cc(O)c2C(=O)O1` [Compound 3, dihydroresorcylide], the Km (commonly the concentration of substrate that gives half-maximal velocity) in experiment [2] (C-11 halogenation (chlorination), compound 3 as substrate, 16 μM Fre, 16 μM Rdc2, pH 7.0, 28° C., 30 minutes) came to 281 ± 20 µM. Also, the turnover number (kcat) – broadly, the number of substrate molecules converted per active site and unit of time at saturation – in experiment [2] (C-11 halogenation (chlorination), compound 3 as substrate) amounted to 0.0137 ± 0.000667 s⁻¹.

For `CC1CCCC(=O)CCCc2c(Cl)c(O)cc(O)c2C(=O)O1` (stereo not drawn) [Compound 3a, 11-chlorodihydroresorcylide], in experiment [2] (setting [3]), the Km was 846 ± 26 µM and the kcat was 0.0016 ± 6.7e-05 s⁻¹.
